Tested on: carrageenan-induced edema
Test: Carrageenan-induced hind paw edema in rats, humate in chow for 37 days with or without indomethacin (Example 3)
Assay type: in vivo, rat
Conditions: indomethacin only, 3 mg/kg subcutaneously 30 min before carrageenan; P<0.05
From the text: Male Sprague Dawley rats weighing approximately 50 g were purchased from Harlan U.S. and housed in wire cages in the animal facility at Mercer University School of Pharmacy. The animals were given a short period of time to acclimate to the new environment and received powdered rat chow from Purina and water ad libitum. At the beginning of the experimental period, the rats were divided into six groups of eight each. Control and indomethacin only groups received only powdered rat chow for the entire length of the experiment. For the four other groups, insoluble granular Menefee Humate® was mixed with the powdered rat chow and placed in feeders. Rats received chow with either 0.1%, 0.5% or 1.0% insoluble, granular Menefee Humate® by weight. After 37 days of receiving humate in their food, the animals weighed approximately 278 g, which in an appropriate size for inducing inflammation. An amount of indomethacin sufficient to achieve 50% inhibition of carrageenan-induced edema (3 mg/kg) was administered to the indomethacin only group and to the 0.1% humate plus indomethacin group. The indomethacin was administered subcutaneously 30 minutes before the administration of carageenan. The rats were then injected in one hind paw with carrageenan (2%). After three hours, the hind paws were measured by mercury displacement.

COc1ccc2c(c1)c(CC(=O)O)c(C)n2C(=O)c1ccc(Cl)cc1 [indomethacin]
inhibition of carrageenan-induced edema: ~50%
